Assay results published in the supplement of paper PMC11451515.

Tested on: P12-Ichikawa
Experiment: cell viability relative to DMSO control; higher = less cytotoxic
Settings: 48 h
Method in brief: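 In 1536-well plates, 5 μl of leukemia cells were seeded per well: 500 cells/well for NOMO1 or SEM and 1000 cells/well for P12-Ichikawa. Each line had first been adapted for at least four passages in each medium. Library compounds in DMSO were pin-dosed at 11 threefold concentrations between 47 μM and 0.79 nM, and CellTiter-Glo One luminescence was read after 48 h at 37°C. Viability is a per-plate percentage relative to DMSO wells, with cell-free wells as background.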

[1] = RPMI 5 mM glucose + 10% FBS, 0.000781 µM
[2] = RPMI 5 mM glucose + 10% FBS, 0.00234 µM
[3] = RPMI 5 mM glucose + 10% FBS, 0.00702 µM
[4] = RPMI 5 mM glucose + 10% FBS, 0.0211 µM
[5] = RPMI 5 mM glucose + 10% FBS, 0.0632 µM
[6] = RPMI 5 mM glucose + 10% FBS, 0.19 µM
[7] = RPMI 5 mM glucose + 10% FBS, 0.569 µM
[8] = RPMI 5 mM glucose + 10% FBS, 1.71 µM
[9] = RPMI 5 mM glucose + 10% FBS, 5.12 µM
[10] = RPMI 5 mM glucose + 10% FBS, 15.4 µM
[11] = RPMI 5 mM glucose + 10% FBS, 46.1 µM
[12] = RPMI 5 mM glucose + 10% dialyzed FBS, 0.000781 µM
[13] = RPMI 5 mM glucose + 10% dialyzed FBS, 0.00234 µM
[14] = RPMI 5 mM glucose + 10% dialyzed FBS, 0.00702 µM
[15] = RPMI 5 mM glucose + 10% dialyzed FBS, 0.0211 µM
[16] = RPMI 5 mM glucose + 10% dialyzed FBS, 0.0632 µM
[17] = RPMI 5 mM glucose + 10% dialyzed FBS, 0.19 µM
[18] = RPMI 5 mM glucose + 10% dialyzed FBS, 0.569 µM
[19] = RPMI 5 mM glucose + 10% dialyzed FBS, 1.71 µM
[20] = RPMI 5 mM glucose + 10% dialyzed FBS, 5.12 µM
[21] = RPMI 5 mM glucose + 10% dialyzed FBS, 15.4 µM
[22] = RPMI 5 mM glucose + 10% dialyzed FBS, 46.1 µM
[23] = HPLM + 10% dialyzed FBS, 0.000781 µM
[24] = HPLM + 10% dialyzed FBS, 0.00234 µM
[25] = HPLM + 10% dialyzed FBS, 0.00702 µM
[26] = HPLM + 10% dialyzed FBS, 0.0211 µM
[27] = HPLM + 10% dialyzed FBS, 0.0632 µM
[28] = HPLM + 10% dialyzed FBS, 0.19 µM
[29] = HPLM + 10% dialyzed FBS, 0.569 µM
[30] = HPLM + 10% dialyzed FBS, 1.71 µM
[31] = HPLM + 10% dialyzed FBS, 5.12 µM
[32] = HPLM + 10% dialyzed FBS, 15.4 µM
[33] = HPLM + 10% dialyzed FBS, 46.1 µM

SMILES	cell viability [1]	cell viability [2]	cell viability [3]	cell viability [4]	cell viability [5]	cell viability [6]	cell viability [7]	cell viability [8]	cell viability [9]	cell viability [10]	cell viability [11]	cell viability [12]	cell viability [13]	cell viability [14]	cell viability [15]	cell viability [16]	cell viability [17]	cell viability [18]	cell viability [19]	cell viability [20]	cell viability [21]	cell viability [22]	cell viability [23]	cell viability [24]	cell viability [25]	cell viability [26]	cell viability [27]	cell viability [28]	cell viability [29]	cell viability [30]	cell viability [31]	cell viability [32]	cell viability [33]
C#CCC(Cc1cnc2nc(N)nc(N)c2n1)c1ccc(C(=O)N[C@@H](CCC(=O)O)C(=O)O)cc1 (stereo partly drawn)	125%	119%	128%	128%	44.8%	47.4%	29.9%	27.4%	23.9%	29%	30.8%	120%	110%	115%	125%	37.1%	25.6%	20.2%	19.9%	17.2%	20.3%	19%	–	–	–	–	–	–	–	–	–	–	–
CC[C@H](C)C(=O)O[C@H]1C[C@@H](C)\C=C2\C=C/[C@H](C)[C@H](CC[C@@H]3C[C@@H](O)CC(=O)O3)[C@@H]12	76.3%	90.1%	87.6%	89.1%	84.5%	82.3%	89.6%	84.9%	83.1%	44.1%	24%	80%	89.8%	89.5%	85.5%	94.6%	88.3%	84.4%	77.9%	77.4%	54.8%	29.7%	91.8%	94.1%	93.3%	91.4%	92.1%	87.7%	97.1%	91.7%	89.3%	64.5%	46.8%
Cc1noc(N[S+](=O)([O-])c2ccc(N)cc2)c1C	85.2%	102%	97.6%	91.2%	99.8%	105%	98.1%	94.1%	102%	96.8%	100%	92.4%	90.5%	99.5%	89.7%	106%	106%	108%	99.3%	101%	94.1%	98.9%	99.4%	106%	104%	112%	115%	109%	111%	114%	109%	102%	117%
CC(C)[C@H](C(=O)Nc1ccc(C(=O)NO)cc1)c1ccccc1	–	–	–	–	–	–	–	–	–	–	–	–	–	–	–	–	–	–	–	–	–	–	117%	120%	121%	129%	125%	125%	118%	87.9%	7.68%	5.55%	6.05%
c1cc2c(cc1[C@H]1OC[C@H]3[C@@H]1CO[C@@H]3c1ccc3c(c1)OCO3)OCO2	–	–	–	–	–	–	–	–	–	–	–	–	–	–	–	–	–	–	–	–	–	–	122%	120%	118%	124%	122%	129%	133%	122%	119%	128%	122%
Cc1nc2ccc(CN(C)c3ccc(C(=O)N[C@@H](CCC(=O)O)C(=O)O)s3)cc2c(=O)[nH]1	112%	117%	126%	115%	113%	97%	66.2%	42.6%	38.2%	35.1%	31.7%	106%	116%	105%	119%	108%	88.9%	60.8%	32.4%	28.5%	27.8%	26.9%	119%	119%	118%	118%	120%	56.7%	42.2%	26.5%	24.9%	25.9%	21.4%
CCOC(=O)c1c(CSc2ccccc2)n(C)c2cc(Br)c(O)c(CN(C)C)c12	118%	127%	122%	126%	128%	123%	125%	112%	112%	113%	73.5%	121%	119%	125%	129%	123%	118%	127%	118%	124%	113%	76.3%	121%	119%	128%	126%	123%	127%	118%	115%	124%	115%	109%
c1ccc2c(CN3CCNCC3)cccc2c1	106%	104%	102%	112%	111%	107%	112%	111%	112%	110%	26.4%	107%	108%	109%	107%	114%	115%	117%	110%	118%	119%	41.1%	111%	112%	113%	108%	113%	112%	109%	116%	118%	111%	35%
OC1=C(Cl)C=C(N\C2=C(\C(=O)NC2=O)C3=C(C=CC=C3)[N+]([O-])=O)C=C1	98.6%	109%	105%	110%	99.4%	98.9%	111%	105%	104%	83.9%	58.1%	100%	107%	112%	115%	110%	109%	113%	106%	109%	86.7%	69.5%	100%	100%	98.9%	102%	112%	97.7%	103%	99.5%	90.1%	87.4%	79.5%
NC(=O)c1nnn(Cc2cc(Cl)c(C(=O)c3ccc(Cl)cc3)c(Cl)c2)c1N	122%	137%	122%	130%	128%	128%	136%	120%	120%	122%	70.9%	122%	128%	122%	134%	123%	119%	131%	121%	109%	118%	68%	–	–	–	–	–	–	–	–	–	–	–
CC(=O)N(O)CCCCCNC(=O)CCC(=O)N(O)CCCCCNC(=O)CCC(=O)N(O)CCCCCN.C[S+](=O)([O-])O	98.4%	110%	99%	99%	54.9%	13.4%	13.2%	11.6%	16.4%	11.4%	12.3%	97.8%	108%	114%	99.2%	79.9%	18.4%	20.7%	16.7%	15.2%	16.1%	22%	93.5%	76.5%	40.7%	10.3%	11%	11.2%	10.8%	9.88%	9.31%	9.06%	9.61%
COc1cc(C[C@@H](CO)[C@H](CO)Cc2ccc(O)c(OC)c2)ccc1O	99.4%	95.1%	108%	109%	109%	111%	118%	119%	114%	117%	110%	109%	112%	113%	118%	118%	122%	119%	133%	134%	136%	125%	94.8%	102%	100%	105%	106%	116%	112%	111%	104%	99.6%	115%
COc1cccc(OC)c1-c1cc(C(=O)NC2(C(=O)O)C3CC4CC(C3)CC2C4)nn1-c1ccnc2cc(Cl)ccc12 (stereo not drawn)	113%	119%	126%	118%	119%	99.4%	126%	110%	115%	112%	97.5%	113%	118%	119%	114%	117%	110%	101%	110%	107%	108%	99.9%	115%	118%	112%	116%	114%	109%	114%	113%	101%	94.7%	86.1%
CN1CCN(CC1)C2=CC3=C([NH]C(=N3)C/4=C(\N)C5=C(F)C=CC=C5NC4=O)C=C2	107%	103%	111%	112%	88.8%	104%	91.9%	89.2%	60.2%	45.2%	30.4%	112%	112%	106%	107%	102%	107%	97.8%	91.3%	67.1%	46.3%	29.4%	103%	106%	109%	99.2%	88.7%	99.7%	96.3%	95%	73%	65.5%	37%
Nc1ncnc2nc(-c3ccc(N4CCOCC4)nc3)cc(-c3cccc(Br)c3)c12	–	–	–	–	–	–	–	–	–	–	–	114%	121%	112%	121%	118%	121%	129%	115%	115%	108%	112%	116%	128%	117%	122%	117%	117%	115%	119%	111%	108%	113%
COc1cc2c(cc1O)CCC1C2CC[C@@]2(C)C1CC[C@@H]2O (stereo partly drawn)	–	–	–	–	–	–	–	–	–	–	–	120%	125%	115%	114%	126%	120%	115%	96.3%	47%	27.8%	26.2%	116%	120%	118%	89.9%	120%	112%	114%	65.1%	31.8%	17.9%	15.8%
O=C(Nc1ccccc1)Nc1ccc(-c2ccc(C(=O)[C@@H]3CCC[C@H]3C(=O)O)cc2)cc1	110%	117%	100%	113%	116%	114%	118%	102%	92.8%	73%	86.2%	123%	121%	116%	104%	122%	122%	115%	114%	89.6%	83.9%	83.1%	105%	102%	117%	113%	113%	122%	96.7%	105%	90.8%	87%	79%
